Source: US9204653B2, “5-fluoro pyrimidine derivatives” (DOW AGROSCIENCES LLC, priority 2008, dated 2015)
Where two headings read alike, the source gives them in different places.

Tested on: Mycosphaerella graminicola; Anamorph: Septoria tritici; Bayer Code SEPTTR
Test: Leaf blotch of wheat, foliar fungicide treatment, one day protectant (1DP) or three day curative (3DC)
Type: in vivo, Septoria tritici on wheat plants (variety Yuma)
Settings: Zymoseptoria tritici
[1] = 24 h, one day protectant (1DP), 25 ppm, rating of percent disease control, read-out: SETTTR 1DP 25 ppm
[2] = 24 h, one day protectant (1DP), rating of percent disease control, read-out: SEPTTR 1DP 100 ppm
[3] = 72 h, three day curative (3DC), 25 ppm, rating of percent disease control, read-out: SEPTTR 3DC 25 ppm
[4] = 72 h, three day curative (3DC), rating of percent disease control, read-out: SEPTTR 3DC 100 ppm
[5] = 24 h, one day protectant (1DP), 25 ppm, percent disease control rating, read-out: SETTTR 1DP 25 ppm
[6] = 24 h, one day protectant (1DP), percent disease control rating, read-out: SEPTTR 1DP 100 ppm
[7] = 72 h, three day curative (3DC), 25 ppm, percent disease control rating, read-out: SEPTTR 3DC 25 ppm
[8] = 72 h, three day curative (3DC), percent disease control rating, read-out: SEPTTR 3DC 100 ppm
[9] = 24 h, % disease control rating, one day protectant
[10] = 24 h, one day protectant, 25 ppm, rating of percent disease control, read-out: SETTTR 1DP 25 ppm
[11] = 24 h, one day protectant, rating of percent disease control, read-out: SEPTTR 1DP 100 ppm
[12] = 72 h, three day curative, 25 ppm, rating of percent disease control, read-out: SEPTTR 3DC 25 ppm
[13] = 72 h, three day curative, rating of percent disease control, read-out: SEPTTR 3DC 100 ppm

Cc1cc(Oc2ncc(F)c(N)n2)cc(C)n1 [Compound 296]
pest or weed control at 25 ppm [1]: 0 to 25%
pest or weed control at 100 ppm [2]: 0 to 25%
pest or weed control at 25 ppm [3]: 0 to 25%
pest or weed control at 100 ppm [4]: 26 to 50%

CN(C)/C=N/c1nc(OS(=O)(=O)c2cccs2)ncc1F [Compound 89]
pest or weed control at 25 ppm [5]: 76 to 100%
pest or weed control at 100 ppm [6]: 76 to 100%
pest or weed control at 25 ppm [7]: 76 to 100%
pest or weed control at 100 ppm [8]: 76 to 100%

COc1cccc(COc2ncc(F)c(NS(N)(=O)=O)n2)c1 [Compound 43, [5-Fluoro-2-(3-methoxybenzyloxy)pyrimidin-4-yl]sulfamide]
pest or weed control at 25 ppm [5]: 26 to 50%
pest or weed control at 100 ppm [6]: 51 to 75%
pest or weed control at 25 ppm [7]: 51 to 75%
pest or weed control at 100 ppm [8]: 51 to 75%

CCCNC(=O)Nc1nc(OCc2cccs2)ncc1F [Compound 776]
pest or weed control at 25 ppm [1]: 0 to 25%
pest or weed control at 100 ppm [2]: 0 to 25%
pest or weed control at 25 ppm [3]: 0 to 25%
pest or weed control at 100 ppm [4]: 0 to 25%

Fc1cnc(OCCc2ccccc2)nc1NCc1ccc(Cl)cc1 [Compound 911]
pest or weed control at 50 ppm (24 h, % disease control rating, one day protectant, 50 ppm): 0 to 25%
pest or weed control at 200 ppm [9]: 0 to 25%

OCNc1nc(OCc2ccccc2)ncc1F [Compound 677]
pest or weed control at 25 ppm [10]: 76 to 100%
pest or weed control at 100 ppm [11]: 76 to 100%
pest or weed control at 25 ppm [12]: 76 to 100%
pest or weed control at 100 ppm [13]: 76 to 100%

Nc1nc(OCc2ccc(I)cc2)ncc1F [Compound 725]
pest or weed control at 25 ppm [10]: 76 to 100%
pest or weed control at 100 ppm [11]: 76 to 100%
pest or weed control at 25 ppm [12]: 76 to 100%
pest or weed control at 100 ppm [13]: 76 to 100%

COc1cccc(COc2ncc(F)c(N/N=C\c3ncc[nH]3)n2)c1 [Compound 557]
pest or weed control at 25 ppm [10]: 26 to 50%
pest or weed control at 100 ppm [11]: 0 to 25%
pest or weed control at 25 ppm [12]: 0 to 25%
pest or weed control at 100 ppm [13]: 0 to 25%

CC(C)(C)OCCOc1ncc(F)c(N)n1 [Compound 802]
pest or weed control at 25 ppm [1]: 0 to 25%
pest or weed control at 100 ppm [2]: 0 to 25%
pest or weed control at 25 ppm [3]: 0 to 25%
pest or weed control at 100 ppm [4]: 0 to 25%

C/C(=N\Oc1ncc(F)c(N)n1)c1ccc(Cl)cc1 [Compound 1000]
pest or weed control at 25 ppm (24 h, one day protectant (1DP), 25 ppm (first 1DP column), percent control rating, read-out: SETTTR 1DP 25 ppm): 76 to 100%
pest or weed control at 25 ppm (24 h, one day protectant (1DP), 25 ppm as printed (second 1DP column), percent control rating, read-out: SETTTR 1DP 25 ppm): 76 to 100%
pest or weed control at 25 ppm (72 h, three day curative (3DC), 25 ppm, percent control rating, read-out: SEPTTR 3DC 25 ppm): 76 to 100%
pest or weed control at 100 ppm (72 h, three day curative (3DC), percent control rating, read-out: SEPTTR 3DC 100 ppm): 76 to 100%

CC(C)OCNc1nc(OCc2ccc(F)cc2)ncc1F [Compound 614]
pest or weed control at 25 ppm [10]: 76 to 100%
pest or weed control at 100 ppm [11]: 76 to 100%
pest or weed control at 25 ppm [12]: 76 to 100%
pest or weed control at 100 ppm [13]: 76 to 100%

Nc1nc(OCc2cnccn2)ncc1F [Compound 699]
pest or weed control at 25 ppm [10]: 76 to 100%
pest or weed control at 100 ppm [11]: 76 to 100%
pest or weed control at 25 ppm [12]: 51 to 75%
pest or weed control at 100 ppm [13]: 76 to 100%

COc1ccccc1COc1ncc(F)c(/N=C/N(C)C)n1 [Compound 405]
pest or weed control at 25 ppm [1]: 76 to 100%
pest or weed control at 100 ppm [2]: 76 to 100%
pest or weed control at 25 ppm [3]: 76 to 100%
pest or weed control at 100 ppm [4]: 76 to 100%

CC(=O)OC[C@H]1O[C@@H](Oc2ncc(F)c(N)n2)[C@H](OC(C)=O)[C@@H](OC(C)=O)[C@@H]1OC(C)=O [Compound 192]
pest or weed control at 25 ppm [1]: 76 to 100%
pest or weed control at 100 ppm [2]: 76 to 100%
pest or weed control at 25 ppm [3]: 51 to 75%
pest or weed control at 100 ppm [4]: 76 to 100%

COc1cccc(COc2ncc(F)c(NCOCc3ccccc3)n2)c1 [Compound 638]
pest or weed control at 25 ppm [10]: 51 to 75%
pest or weed control at 100 ppm [11]: 76 to 100%
pest or weed control at 25 ppm [12]: 0 to 25%
pest or weed control at 100 ppm [13]: 51 to 75%

Cc1ccc(C(C)Oc2ncc(F)c(N)n2)cc1C (stereo not drawn) [Compound 145]
pest or weed control at 25 ppm [5]: 76 to 100%
pest or weed control at 100 ppm [6]: 76 to 100%
pest or weed control at 25 ppm [7]: 76 to 100%
pest or weed control at 100 ppm [8]: 76 to 100%

CC(C)OC(=O)Oc1ncc(F)c(/N=C/N(C)C)n1 [Compound 467]
pest or weed control at 25 ppm [1]: 76 to 100%
pest or weed control at 100 ppm [2]: 76 to 100%
pest or weed control at 25 ppm [3]: 76 to 100%
pest or weed control at 100 ppm [4]: 76 to 100%

CCC(/C=N/Nc1nc(OCc2cccc(OC)c2)ncc1F)CC [Compound 97]
pest or weed control at 25 ppm [5]: 0 to 25%
pest or weed control at 100 ppm [6]: 51 to 75%
pest or weed control at 25 ppm [7]: 0 to 25%
pest or weed control at 100 ppm [8]: 0 to 25%

Fc1cnc(OCc2ccc(C(F)(F)F)cc2)nc1NCc1cccs1 [Compound 896]
pest or weed control at 200 ppm [9]: 76 to 100%

CC#CCOc1ncc(F)c(NC(=O)Nc2ccsc2)n1 [Compound 729]
pest or weed control at 25 ppm [10]: 51 to 75%
pest or weed control at 100 ppm [11]: 26 to 50%
pest or weed control at 25 ppm [12]: 51 to 75%
pest or weed control at 100 ppm [13]: 51 to 75%
